Measurements: BindingDB's records for doi:10.1016/j.bmcl.2007.06.023 (Merck Frosst Centre For Therapeutic Research, 2007)

Assays:
Assay in all cases: Enzyme Inhibition Assay
Cathepsin K = biological target: T1, Cathepsin K (Oryctolagus cuniculus, UniProt P43236)
T1 sequence (P43236 whole entry): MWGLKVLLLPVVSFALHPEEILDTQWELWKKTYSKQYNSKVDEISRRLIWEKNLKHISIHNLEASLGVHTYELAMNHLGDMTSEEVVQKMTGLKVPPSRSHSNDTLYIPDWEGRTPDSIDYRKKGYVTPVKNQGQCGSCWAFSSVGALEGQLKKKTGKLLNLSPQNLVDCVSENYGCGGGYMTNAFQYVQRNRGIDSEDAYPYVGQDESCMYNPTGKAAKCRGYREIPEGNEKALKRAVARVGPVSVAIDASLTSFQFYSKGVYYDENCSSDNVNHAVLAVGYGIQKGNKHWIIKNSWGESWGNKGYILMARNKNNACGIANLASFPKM
Experimental: (§1) Prior to the addition of substrate, different concentrations of the inhibitor ranging from 100 uM to 0.2 nM were preincubated for 15 min with enzyme to allow the establishment of the enzyme-inhibitor complex. The proteolytic cleavage of N-acyl aminocoumarins by cathepsins was conducted in 96-well plate format and the plate read using a Spectramax (Molecular Devices) plate reader. The excitation wavelength was 355 nm and the emission wavelength was 460 nm for peptidyl-AMC substrates. The percent inhibition of the reaction was calculated from a control reaction containing only vehicle. IC50 curves were generated by fitting percent inhibition values to a four parameter logistic model (SOFTMAX PRO, Molecular Devices).

Cathepsin S = Cathepsin S (Homo sapiens, UniProt P25774); settings: pH 6.5; 22 °C
Chain of Cathepsin S (P25774 whole entry): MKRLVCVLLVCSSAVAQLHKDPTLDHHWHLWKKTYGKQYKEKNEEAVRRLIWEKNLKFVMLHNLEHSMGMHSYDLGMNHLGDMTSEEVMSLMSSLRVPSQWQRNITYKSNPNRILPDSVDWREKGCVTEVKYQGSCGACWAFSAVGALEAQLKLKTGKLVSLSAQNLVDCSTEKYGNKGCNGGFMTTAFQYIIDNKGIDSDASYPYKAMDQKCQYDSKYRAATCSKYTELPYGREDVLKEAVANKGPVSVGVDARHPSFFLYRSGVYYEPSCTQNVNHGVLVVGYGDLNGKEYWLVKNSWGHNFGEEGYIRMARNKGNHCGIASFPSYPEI
Experimental: as §1

Procathepsin L = Procathepsin L (Homo sapiens, UniProt P07711)
Chain of Procathepsin L (P07711 whole entry): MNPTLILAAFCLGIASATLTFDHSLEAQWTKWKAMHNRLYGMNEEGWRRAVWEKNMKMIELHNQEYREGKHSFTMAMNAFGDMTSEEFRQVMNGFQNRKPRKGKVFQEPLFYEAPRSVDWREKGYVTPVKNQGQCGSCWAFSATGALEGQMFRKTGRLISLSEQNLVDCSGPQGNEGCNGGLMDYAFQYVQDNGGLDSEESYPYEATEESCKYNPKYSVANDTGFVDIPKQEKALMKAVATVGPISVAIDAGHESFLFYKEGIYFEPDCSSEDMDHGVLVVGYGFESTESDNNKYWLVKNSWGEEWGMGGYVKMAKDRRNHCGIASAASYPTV
Experimental: as §1

Compound	IC50 (Cathepsin K)	IC50 (Cathepsin S)	IC50 (Procathepsin L)
CC(C)C[C@@H](NC(=O)N1CCOCC1)C(=O)N[C@@H](C=CS(=O)(=O)c1ccccc1)CCc1ccccc1	6.2 nM	1.2 nM	–
CC(C)(c1ccc(F)cc1)S(=O)(=O)C[C@H](N[C@@H](c1ccc(F)cc1)C(F)(F)F)C(=O)NC1(C#N)CC1 [(2R)-N-(1-cyanocyclopropyl)-3-{[2-(4-fluorophenyl)propane-2-]sulfonyl}-2-{[(1S)-2,2,2-trifluoro-1-(4-fluorophenyl)ethyl]amino}propanamide]	> 10000 nM	–	–
N#CC1(NC(=O)[C@H](CS(=O)(=O)Cc2cccc(F)c2F)N[C@@H](c2ccc(F)cc2)C(F)(F)F)CC1 [(2R)-N-(1-cyanocyclopropyl)-3-{[(2,3-difluorophenyl)methane]sulfonyl}-2-{[(1S)-2,2,2-trifluoro-1-(4-fluorophenyl)ethyl]amino}propanamide]	> 10000 nM	–	–
N#CC1(NC(=O)[C@H](CS(=O)(=O)Cc2cccc(F)c2F)N[C@@H](c2ccccc2)C(F)(F)F)CC1 [(2R)-N-(1-cyanocyclopropyl)-3-{[(2,3-difluorophenyl)methane]sulfonyl}-2-{[(1S)-2,2,2-trifluoro-1-phenylethyl]amino}propanamide]	> 10000 nM	–	–
N#CC1(NC(=O)[C@H](CS(=O)(=O)Cc2c(Cl)cccc2Cl)N[C@@H](c2ccc(F)cc2)C(F)(F)F)CC1 [(2R)-N-(1-cyanocyclopropyl)-3-{[(2,6-dichlorophenyl)methane]sulfonyl}-2-{[(1S)-2,2,2-trifluoro-1-(4-fluorophenyl)ethyl]amino}propanamide]	> 10000 nM	0.7 nM	249 nM
N#CC1(NC(=O)[C@H](CS(=O)(=O)Cc2ccccc2-c2ccccc2)N[C@@H](c2ccc(F)cc2)C(F)(F)F)CC1 [(2R)-N-(1-cyanocyclopropyl)-3-{[(2-phenylphenyl)methane]sulfonyl}-2-{[(1S)-2,2,2-trifluoro-1-(4-fluorophenyl)ethyl]amino}propanamide]	> 10000 nM	–	–
N#CC1(NC(=O)[C@H](CS(=O)(=O)Cc2ccc(F)cc2)N[C@@H](c2ccccc2)C(F)(F)F)CC1 [(2R)-N-(1-cyanocyclopropyl)-3-{[(4-fluorophenyl)methane]sulfonyl}-2-{[(1S)-2,2,2-trifluoro-1-phenylethyl]amino}propanamide]	> 10000 nM	–	–
